Entries after “also recorded” stand apart in the source; their conditions may differ.

One experiment concerns ERBB3. Put plainly: mRNA expression of growth factor receptors after growth factor treatment (microarray). The format is cell-based, human. Particulars: MCF7 and HT29 cells; 100 ng/ml (heregulin 30 ng/ml). As for the experimental part:
(§1) FIG. 29. Negative feedback induced by growth factors. The data presented represents the effect of each growth factor on the mRNA expression of (A) EGFR, (B) ERBB3, (C) INSR, or (D) a recently published signature of aberrant PTEN activity. The Y-axes represent the log(10) ratio of expression relative to vehicle. […] The X-axes represent the time point after growth factor addition.
(§2) MCF-7 and HT-29 cell lines were seeded in 6-well plates to achieve 40-50% confluence at the time of growth factor addition. Cells were serum starved for 24 hours in 0.2% charcoal stripped serum, and growth factors were added at 100 ng/ml (EGF, IGF, insulin, b-FGF) or 30 ng/ml (heregulin). Concentrations of growth factors were chosen to give maximal activation of growth factor receptors as judged by receptor auto-phosphorylation. Activation of growth factor receptor pathways after growth factor addition was confirmed by Western analysis of phosphorylated MAPK and phosphorylated AKT in a separate plate of cells (data not shown). Cells were harvested at 30 minutes, 2 hours, 6 hours, 18 hours, and 24 hours after growth factor addition. DMSO (vehicle) treated cells were also harvested at each time point. RNA was prepared using RLT lysis reagent Qiagen spin columns according to manufacturer instructions.
(§3) For growth factor and AKT inhibitor treated cells, total RNA was isolated from cell lines and converted to fluorescently labeled cRNA that was hybridized to DNA oligonucleotide microarrays as described previously (Hughes et al., 2001, Nat. Biotechnol. 19:342-347; Marton et al., 1998, Nat. Med. 4:1293-1301). Briefly, 4 μg of total RNA from each treated sample was used to synthesize dsDNA through reverse transcription. cRNA was produced by in vitro transcription and labeled post-synthetically with Cy3 or Cy5. cRNA derived from growth factor or AKT inhibitor treated cells (experimental sample) was hybridized against cRNA derived from vehicle treated samples (reference sample). Two hybridizations were done with each cRNA sample pair using fluorescent dye reversal strategy. For growth factor treated cells, microarrays contained 23,880 probes representing genes or expressed sequence tags (GEO platform GPL2029). For AKT inhibitor treated cells, microarrays contained 23,658 probes representing genes or expressed sequence tags (GEO platform GPL3991). Probe sequences were chosen to maximize gene specificity and minimize the 3′-replication bias inherent in reverse transcription of mRNA. In addition, all microarrays contained approximately 2,000 control probes for quality control purposes. All probes on the microarrays were synthesized in situ with inkjet technology (Agilent Technologies, Palo Alto, Calif.; Hughes et al, 2001, Nat. Biotechnol. 19:342-347). After hybridization, arrays were scanned and fluorescence intensities for each probe were recorded. Ratios of transcript abundance (experimental to control) were obtained following normalization and correction of the array intensity data. Gene expression data was analyzed using Rosetta Resolver gene expression analysis software (version 7.0, Rosetta Biosoftware, Seattle, Wash.) and MATLAB (The MathWorks, Natick, Mass.).
(§4) As such, care should be taken when using mRNA levels of ERBB3 or INSR as a surrogate for activity of signaling through these receptors.

In the next experiment the test system is INSR. Described as above. The format is cell-based, human. Particulars: MCF7 and HT29 cells; 100 ng/ml (heregulin 30 ng/ml). Here is the method: as §1, §2, §3, §4
The test system of another experiment is growth factor signature. Put plainly: Signature inhibition in the connectivity map dataset. The format is cell-based. Particulars: for Enrichment / Rank in terms of significance of signature inhibition: Growth Factor Signaling Pathway signature, connectivity map dataset; for Rank in terms of significance of signature inhibition: rank among all compounds; for rank in terms of significance of growth factor signature inhibition: among all compounds in the connectivity map dataset. From the text: (§5) To further validate the growth factor signature, we leveraged signatures of drug response from the connectivity map dataset (Lamb et al., 2006, Science 313:1929-1935). This dataset comprises mRNA expression data for 164 distinct small molecules, representing 453 individual compound treatment experiments. These small molecule inhibitors include the PI3K inhibitors wortmannin and LY-294002 and the mTOR inhibitor sirolimus. We surmised that if the growth factor signature truly represents activation of the PI3K pathway, these compounds should have an inhibitory effect on the signature. […] In contrast, other perturbagens in the connectivity map dataset either have no effect, a less significant inhibitory effect, or an activating effect on the growth factor signaling signature. […] For example, while LY-294002 was the top ranked compound in terms of significance of proliferation signature inhibition, sirolimus was ranked fifth, and wortmannin was ranked 23rd (Table 12).

A further experiment has as its system proliferation signature. The description is as above. The format is cell-based. The note with it: for Enrichment / Rank in terms of significance of signature inhibition: Proliferation signature, connectivity map dataset; for Rank in terms of significance of signature inhibition: rank among all compounds.
From the text: as §5

The next experiment relates to MYC signature. Described as above. The format is cell-based. Particulars: c-MYC signature; for Rank in terms of significance of signature inhibition: rank among all compounds.
Another experiment concerns DLD-1. Put plainly: Sensitivity of colon cancer cell lines to AKT1/2 inhibitor (cell killing). Format: cell-based, human. The note with it: in vitro, grouping is relative. An excerpt:
(§6) FIG. 2. Cell lines used as a starting point for signature gene discovery. Nineteen colon cancer cell lines were phenotyped for sensitivity to the AKT1/2 inhibitor L-001154547.
(§7) In order to identify a gene expression signature of growth factor signaling pathway deregulation in human tumors, six colon carcinoma cell lines HCT-8 (ATCC #CCL-244), LoVo (ATCC #CCL-229), COLO205 (ATCC #CLL-222), DLD-1 (ATCC #CCL-221), HCT-116 (ATCC #CCL-247), and HCT-15 (ATCC #CCL-225) were initially expression profiled by microarray to identify genes that are responsive to AKT1/2 small molecule inhibition. The six colon cancer cell lines were treated with either 4 μM AKT1/2 inhibitor L-001154547 ('547; 3-phenyl-2-(4-{[4-(5-pyridin-2-yl-1H-1,2,4-triazol-3-yl)piperidin-1-yl]methyl}phenyl)-1,6-naphthyridin-5(6H)-one; disclosed in WO2006065601) or 4 μM AKT1/2 inhibitor L-01173931 ('931; 6-Methyl-3-phenyl-2-(4-{[4-(5-pyridin-2-yl-1H-1,2,4-triazol-3-yl)piperidin-1-yl]-methyl}phenyl)-1,6-naphthyridin-5(6H)-one; disclosed in WO2006065601) for 6 or 24 hours. Two AKT1/2 inhibitors were used for the profiling experiments as a way to offset any off-target effects of any one compound.
(§8) Discriminant analysis of responders and non-responders using post-dose changes of gene expression was 90% accurate in leave-one-out cross-validation (data not shown). Among these 1,600 genes, we focused on 399 genes that were tightly correlated (r>0.7) with changes in expression of IRS2 across this dataset, a key mediator of growth pathway signaling (FIG. 3B) (Hennessy et al., 2005, Nat. Rev. Drug Discov. 4:988-1004). Note that the sensitivity and resistance phenotypes shown in FIG. 1 are relative, not absolute.

For another experiment, the system named is LoVo. The description is as above. The format is cell-based, human. Particulars: in vitro, grouping is relative.
From the text: as §6, §7, §8

A further experiment has as its system COLO205. Described as above. Format: cell-based, human. Particulars: in vitro, grouping is relative.
From the text: as §6, §7, §8

For a further experiment, the system named is HCT-15. The description is as above. Format: cell-based, human. The note with it: in vitro, grouping is relative.
From the text: as §6, §7, §8

For the next experiment, the system named is HCT-8. Described as above. The format is cell-based, human. Particulars: in vitro, grouping is relative.
From the text: as §6, §7, §8

The next experiment deals with HCT-116. Described as above. Format: cell-based, human. The note with it: in vitro, grouping is relative.
From the text: as §6, §7, §8

Experiment [1] has as its system growth factor signaling pathway signature. Put plainly: Regulation of the growth factor signaling pathway signature by growth factors and inhibitors. The format is cell-based. The note with it: HT29 and MCF7 cells; 0.5, 2, 6, 18, or 24 hours. From the text: FIG. 9. Inverse regulation of the growth factor signaling pathway signature by growth factors relative to growth factor pathway inhibitors. Genes listed in Table 5 are shown along the Y-axis, and various treatments are listed along the X-axis. The drug treatment/drug targets are listed along the left hand side, and functional groupings are listed along the right hand side. […] From the growth factor compendium, we show data from both colon (HT29) and breast (MCF7) cells treated with heregulin (a growth factor that binds to Erbb family receptors and activates PI3K/AKT signaling). Cells were treated with heregulin for 0.5, 2, 6, 18, or 24 hours.
Because we developed this novel growth factor signaling pathway signature based on regulation by inhibitors of growth factor pathway signaling, we hypothesized that our signature genes would be inversely regulated in vitro by treatments that activate growth factor signaling.

“b-FGF: growth factor added to cells at 100 ng/ml”: the “ERBB3 mRNA expression” value in the experiment with ERBB3 was “significant down-regulation”. The “INSR mRNA expression” value in the experiment on INSR is listed as “significant down-regulation”.
For the compound `CO[C@H]1C[C@@H]2CC[C@@H](C)[C@@](O)(O2)C(=O)C(=O)N2CCCC[C@H]2C(=O)O[C@H]([C@H](C)C[C@@H]2CC[C@@H](O)[C@H](OC)C2)CC(=O)[C@H](C)/C=C(\C)[C@@H](O)[C@@H](OC)C(=O)[C@H](C)C[C@H](C)/C=C/C=C/C=C/1C` [sirolimus], in the experiment with growth factor signature, the Enrichment is −0.865, the “Rank in terms of significance of signature inhibition” value is given as 1 and the “rank in terms of significance of growth factor signature inhibition” value was found to be 1. Moreover, in the experiment with proliferation signature, the Enrichment is −0.482 and the “Rank in terms of significance of signature inhibition” value stood at 5. In addition, in the experiment with MYC signature, the Enrichment is on record as −0.68 and the “Rank in terms of significance of signature inhibition” value is on record as 1.
Consider “insulin: growth factor added to cells at 100 ng/ml”, for which the “ERBB3 mRNA expression” value with ERBB3 was “significant down-regulation”. Besides, the “INSR mRNA expression” value in the experiment with INSR is “significant down-regulation”.
For the compound “IGF: growth factor added to cells at 100 ng/ml”, the “ERBB3 mRNA expression” value with ERBB3 was “significant down-regulation”. For the same compound, the “INSR mRNA expression” value in the experiment on INSR is “significant down-regulation”.
For `O=c1[nH]ccc2nc(-c3ccc(CN4CCC(c5n[nH]c(-c6ccccn6)n5)CC4)cc3)c(-c3ccccc3)cc12` [L-001154547, 3-phenyl-2-(4-{[4-(5-pyridin-2-yl-1H-1,2,4-triazol-3-yl)piperidin-1-yl]methyl}phenyl)-1,6-naphthyridin-5(6H)-one], the “sensitivity to AKT inhibition” value is “more resistance; also recorded: relatively resistant” in the experiment with DLD-1; “more sensitive; also recorded: relatively sensitive” in the experiment on LoVo; “more sensitive; also recorded: relatively sensitive” in the experiment with COLO205; “more resistance; also recorded: relatively resistant” in the experiment on HCT-15; “more sensitive; also recorded: relatively sensitive” with HCT-8; “more resistance; also recorded: relatively resistant” in the experiment with HCT-116.
For `O=c1cc(N2CCOCC2)oc2c(-c3ccccc3)cccc12` [LY-294002], the Enrichment in the experiment with growth factor signature is −0.748; in the experiment with proliferation signature, −0.527; in the experiment on MYC signature, −0.602. The figures for the “Rank in terms of significance of signature inhibition” value in the experiment with growth factor signature, in the experiment with proliferation signature and in the experiment with MYC signature were 3, 1 and 2, respectively. The “rank in terms of significance of growth factor signature inhibition” value with growth factor signature was determined as 3.
With `COC[C@H]1OC(=O)c2coc3c2[C@@]1(C)C1=C(C3=O)[C@@H]2CCC(=O)[C@@]2(C)C[C@H]1OC(C)=O` [wortmannin], the Enrichment in the experiment with growth factor signature was −0.776; in the experiment on proliferation signature, −0.387; with MYC signature it was −0.561. Moreover, the “Rank in terms of significance of signature inhibition” value with growth factor signature is listed as 2; in the experiment on proliferation signature, 23; in the experiment on MYC signature, 7. In addition, the “rank in terms of significance of growth factor signature inhibition” value in the experiment with growth factor signature was found to be 2. Further, the “rank in terms of significance of proliferation signature inhibition” value in the experiment on proliferation signature (among all compounds in the connectivity map dataset) stood at 23.
For heregulin, in the experiment with ERBB3, the “ERBB3 mRNA expression” value is recorded as “significant down-regulation”. Moreover, in the experiment on INSR, the “INSR mRNA expression” value is “significant down-regulation”. For the same compound, the “regulation of the growth factor signaling pathway signature genes” value in experiment [1] was “inverse regulation of the signature genes”.

For the origin of these results see patent publication US8392127B2, “Methods and gene expression signature for assessing growth factor signaling pathway regulation status” (Merck Sharp & Dohme Corp., priority 2008, dated 2013).
